In assay [1] the target is T1, 11β-HSD1 (Homo sapiens, UniProt P28845). In words: Ki values for 11β-HSD1 (stated, no method given). It is filed as biochemical. Particulars: range in words only.
Target sequence in this assay (P28845 24-292): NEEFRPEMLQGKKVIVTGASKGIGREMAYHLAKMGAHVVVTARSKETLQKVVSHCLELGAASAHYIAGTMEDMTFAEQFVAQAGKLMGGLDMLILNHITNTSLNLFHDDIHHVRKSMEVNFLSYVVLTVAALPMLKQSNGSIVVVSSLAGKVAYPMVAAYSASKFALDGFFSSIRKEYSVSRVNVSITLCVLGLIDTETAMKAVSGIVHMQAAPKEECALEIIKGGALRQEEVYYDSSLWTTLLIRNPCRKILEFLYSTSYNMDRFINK
Another assay deals with T2, guinea pig 11β-HSD1 (Cavia porcellus, UniProt Q6QLL4).
T2 construct: the first 23 amino acid residues (19 for the rat variant) of the protein, which includes the distal N-terminus and the transmembrane domain, were omitted; His6 (N); made in house; host or cells: E. coli BL21(DE3), pET28a derivative, fermentor culture
T2 sequence (Q6QLL4 with tags, fused parts or gaps): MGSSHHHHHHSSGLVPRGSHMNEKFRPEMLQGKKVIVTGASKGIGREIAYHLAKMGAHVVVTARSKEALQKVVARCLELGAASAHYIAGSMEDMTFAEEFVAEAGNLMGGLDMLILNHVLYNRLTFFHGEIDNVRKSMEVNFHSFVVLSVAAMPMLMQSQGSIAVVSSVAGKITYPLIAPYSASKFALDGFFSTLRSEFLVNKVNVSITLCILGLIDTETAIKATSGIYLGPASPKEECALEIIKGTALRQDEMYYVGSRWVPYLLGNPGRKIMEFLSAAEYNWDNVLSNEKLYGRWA
Put plainly: GuHCl-induced inactivation (conformational stability) monitored by cortisol dehydrogenation activity. It counts as biochemical. Particulars: guinea pig enzyme, control (no addition) 0.51. The protocol:
(§1) Stability measurements. The conformational stability was examined by monitoring GuHCl-induced solvent inactivation of 11β-HSD1. Protein solutions (5-10 μM) were incubated overnight at room temperature in various concentrations of GuHCl (0-2 M) buffered with 50 mM Tris-HCl, pH 8.0. The inactivation of the enzyme was monitored by the decrease in dehydrogenase activity (25 μM cortisol, 50 μM NADP^+) using the fluorimetric assay described above. The stability data were analyzed by nonlinear regression, fitting to the equation described by Santoro and Bolen (24) using the program GraFit, version 5.0 (Erithacus Software, Staines, UK). The midpoint concentration of inactivation, Cm, was determined from the ratio, ΔG^H2O/m, of the fitted parameters.

In assay [2] the target is T1, 11β-HSD1. Put plainly: Active site titration, cortisol dehydrogenation by 11β-HSD1 with increasing inhibitor. It counts as biochemical. Also noted: the first 23 amino acid residues (19 for the rat variant) of the protein, which includes the distal N-terminus and the transmembrane domain, were omitted; made in house; host or cells: E. coli BL21(DE3), pET28a derivative, co-expression of GroEL/ES. To be noted: dehydrogenase reaction, 50 μM cortisol, 100 μM NADP+; fitted to Morrison equation; read-out: Ki^app. The protocol:
FIG. 3 is a graph depicting active site titration of highly purified, homogenous human 11β-HSD1. Fractional velocities (vi/v0) of cortisol dehydrogenation by 11β-HSD1 were determined in presence of increasing amounts of the selective and potent inhibitor BVT.24829. […] Total protein concentration was determined by amino acid analysis (triplicate measurements) assuming a molecular mass of 31.9 kDa for the His-tagged enzyme.
Enzyme activity measurements. The dehydrogenase activity of 11β-HSD1 was assayed at 25° C. in 50 mM Tris/Cl, pH 7.4, using 50 μM cortisol and 100 μM NADP^+, with a K2 spectrofluorimeter (ISS, Champaign, Ill.). The excitation and emission wavelengths were 340 nm and 460 nm, respectively. To ensure unambiguous initial rate measurements, the enzyme addition was adjusted to give a linear fluorescence increase for at least the first 2 min of reaction. Reaction rates were calculated before and after the addition of purified 11β-HSD1 to give enzymatic rates of NADP^+ reduction. The relationship between the increase of fluorescence and the rate of NADP^+ reduction was established by generating a calibration curve using freshly prepared solutions of NADPH (0-25 μM). […] Substrate and product were monitored by UV absorbance at 240 nm and concentrations were calculated by referral to corresponding calibration curves. […]
Target sequence in this assay (P28845 with tags, fused parts or gaps): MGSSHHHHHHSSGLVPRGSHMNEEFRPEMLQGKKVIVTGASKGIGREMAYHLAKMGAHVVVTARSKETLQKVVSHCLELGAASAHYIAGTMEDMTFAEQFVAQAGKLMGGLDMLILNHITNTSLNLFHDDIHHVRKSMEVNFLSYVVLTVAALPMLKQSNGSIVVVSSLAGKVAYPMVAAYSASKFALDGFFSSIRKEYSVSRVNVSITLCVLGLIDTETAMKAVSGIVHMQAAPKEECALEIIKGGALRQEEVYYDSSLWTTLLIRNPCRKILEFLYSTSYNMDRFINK

Assay [3] has as its target T1, 11β-HSD1. Put plainly: Yield of soluble recombinant 11β-HSD1 expressed in E. coli BL21(DE3), SDS-PAGE of cleared lysate. Particulars: GroEL/ES co-overexpression in combination with inhibitor in growth medium; estimated by SDS-PAGE. Also noted: the first 23 amino acid residues (19 for the rat variant) of the protein, which includes the distal N-terminus and the transmembrane domain, were omitted; made in house; host or cells: E. coli BL21(DE3), pET28a derivative, co-expression of GroEL/ES. An excerpt:
FIGS. 1A and 1B depict expression of soluble 11β-HSD1 as analyzed by SDS-PAGE. Cleared lysates from induced cultures of BL21(DE3) containing pET28a derivatives for expression of human (FIG. 1A) and rat (FIG. 1B) 11β-HSD1. Lane 1, SeeBlue Plus2 pre-stained protein standard. lane 2, overexpression of 11β-HSD1; lane 3, co-overexpression of 11β-HSD1 and GroEL/ES; lane 4, overexpression of 11β-HSD1 in presence of the inhibitor BVT.24829; lane 5, co-overexpression of 11β-HSD1 and GroEL/ES in presence of BVT.24829.
Two different strategies were employed to optimize production of soluble 11β-HSD1. For expression of the human and rat variant, the cells were grown in shake flasks using Terrific Broth medium supplemented with 50 μg/ml kanamycin and 34 μg/ml chloramphenicol. To increase the yield of soluble human and rat 11β-HSD1, the BL21(DE3) cells were co-transformed with the plasmid pBV530, harboring the genes for the E. coli chaperonin GroEL/ES under control of the araBAD promoter. The cells were then grown at 25° C. to a cell density corresponding to an A600 value of 0.5-1.0. To induce expression of GroEL/ES, arabinose was added to a final concentration of 0.05%. 45-60 minutes after induction of the chaperonin, 0.2 mM isopropyl-β-D-thiogalactoside (IPTG) was added to initiate production of 11β-HSD1. […]
Target sequence in this assay (P28845 with tags, fused parts or gaps): as above

Assay [4] concerns the target T1, 11β-HSD1. In words: GuHCl-induced inactivation (conformational stability) monitored by cortisol dehydrogenation activity. Particulars: human enzyme, control (no addition) 0.25. It counts as biochemical. The arrangement: the first 23 amino acid residues (19 for the rat variant) of the protein, which includes the distal N-terminus and the transmembrane domain, were omitted; made in house; host or cells: E. coli BL21(DE3), pET28a derivative, co-expression of GroEL/ES. The procedure: FIG. 4 is a graph depicting inactivation of recombinant human 11β-HSD1-catalyzed cortisol dehydrogenation with GuHCl. Protein concentration was approximately 5 μM in 50 mM Tris-HCl, pH 8.0. Solutions were exposed to denaturant, and protected by additives as indicated, for 16-18 h at 4° C. (∘) no additives; (□) 50 μM NADP^+; (□) BVT.24829 inhibitor and 50 μM NADP^+.
as §1
Target sequence in this assay (P28845 with tags, fused parts or gaps): as above

Values joined by “and” are separate entries in the source; they are usually repeats but may differ in a detail not shown here. Equal entries are not always repeated.

Regarding `Cc1c(Cl)cccc1S(=O)(=O)Nc1nc(CC(=O)N2CCN(C)CC2)cs1` [BVT.2733, 3-Chloro-2-methyl-N-{4-[2-(4-methyl-1-piperazinyl)-2-oxoethyl]-1,3-thiazol-2-yl}benzenesulfonamide], on 11β-HSD1 [1], the “Ki values for 11β-HSD1” value is on record as “micromolar range”.
Regarding `CCCc1ccc(S(=O)(=O)Nc2ccsc2C(=O)N(CC)CC)cc1` [BVT.4584, N,N-diethyl-(3-{[(4-propylphenyl)sulfonyl]amino}thien-2-yl)carboxamide], the “midpoint concentration, Cm, for GuHCl-induced inactivation” value at guinea pig 11β-HSD1 (25 μM inhibitor + cofactor 50 μM NADP+) is 1.0 M and 0.98 M; at guinea pig 11β-HSD1 (25 μM inhibitor added), 0.75 M. In addition, the “Ki values for 11β-HSD1” value at 11β-HSD1 [1] is given as “micromolar range”.
Turning to `Cc1sc(NS(=O)(=O)c2cccc(Cl)c2C)nc1CCN1CCOCC1=O` [BVT.24829, 3-chloro-2-methyl-N-{5-methyl-4-[2-(3-oxo-4-morpholinyl)ethyl]-1,3-thiazol-2-yl}benzenesulfonamide], at 11β-HSD1 [2], the Ki is 0.032 ± 0.001 µM. For the same compound, the “improvement of yield of soluble human 11β-HSD1” value on 11β-HSD1 [3] is listed as “approximately 60 fold”. Moreover, the “midpoint concentration, Cm, for GuHCl-induced inactivation” value on 11β-HSD1 [4] (inhibitor + cofactor 50 μM NADP+) is 0.7 M and 0.71 M; on 11β-HSD1 [4] (one equivalent of inhibitor added), 0.51 M. In addition, at 11β-HSD1 [1], the “Ki values for 11β-HSD1” value is “nanomolar range”.
As to `Cc1c(Cl)cccc1S(=O)(=O)Nc1nc(CCN2CCOCC2=O)cs1` [BVT.3498, 3-chloro-2-methyl-N-{4-[2-(3-oxo-4-morpholinyl)ethyl]-1,3-thiazol-2-yl}benzenesulfonamide], the “Ki values for 11β-HSD1” value on 11β-HSD1 [1] is recorded as “nanomolar range”.
